Results from ChEMBL document CHEMBL4834418, “Pentaminomycins F and G, Nonribosomal Peptides Containing 2-Pyridylalanine” (2021).
Converted amounts (≈) assume the structure as drawn. The source made the active and inactive calls. No cut-off for these calls is given here. Starred links: 1 amine or outer side, 2 acyl side, 3 side chain; linkers in the order of their positions; H or OH if unused. Non-standard residues stand in square brackets, D forms with d. Residues, ends and D or L forms follow the SMILES beside them. X1 = N=C(N)N(O)CCC[C@H](N[*:1])C(=O)[*:2]

Columns and labels:
Acinetobacter baumannii = assay: Antibacterial activity against Acinetobacter baumannii MB5973 measured after overnight incubation; type: functional
Escherichia coli = assay: Antibacterial activity against Escherichia coli ATCC 25922 measured after overnight incubation; type: functional, organism-based
Klebsiella pneumoniae = assay: Antibacterial activity against Klebsiella pneumoniae ATCC 700603 measured after overnight incubation; type: functional, organism-based
Pseudomonas aeruginosa = assay: Antibacterial activity against Pseudomonas aeruginosa MB5919 measured after overnight incubation; type: functional, organism-based

MIC (Acinetobacter baumannii) [µg/mL]	SMILES	Activity (Escherichia coli)	Activity (Klebsiella pneumoniae)	Activity (Pseudomonas aeruginosa)
16 (≈ 23.4 µM)	CC(C)C[C@@H]1NC(=O)[C@@H](CC(C)C)NC(=O)[C@H](CCCN(O)C(=N)N)NC(=O)[C@H](Cc2c[nH]c3ccccc23)NC(=O)[C@@H](C(C)C)NC1=O (cyclo(L[dV]W[X1][dL]))	inactive	inactive	inactive
16 (≈ 22.3 µM)	CC(C)C[C@@H]1NC(=O)[C@@H](Cc2ccccc2)NC(=O)[C@H](CCCN(O)C(=N)N)NC(=O)[C@H](Cc2c[nH]c3ccccc23)NC(=O)[C@@H](C(C)C)NC1=O	inactive	inactive	inactive
